Source: ChEMBL document CHEMBL2074452, “Mercapturic acids (N-acetylcysteine S-conjugates) as endogenous substrates for the renal organic anion transporter-1” (Mol Pharmacol, 2001)

How the values were obtained:
[1] = molecular target: T1, Solute carrier family 22 member 6 (Rattus norvegicus, UniProt O35956); experiment: TP_TRANSPORTER: inhibition of DNP-NAC uptake (DNP-NAC: 1 uM, Benzyl-NAC: 1000 uM) in Xenopus laevis oocytes; type: functional, cell-based; conditions: oocyte
T1 sequence (O35956 whole entry): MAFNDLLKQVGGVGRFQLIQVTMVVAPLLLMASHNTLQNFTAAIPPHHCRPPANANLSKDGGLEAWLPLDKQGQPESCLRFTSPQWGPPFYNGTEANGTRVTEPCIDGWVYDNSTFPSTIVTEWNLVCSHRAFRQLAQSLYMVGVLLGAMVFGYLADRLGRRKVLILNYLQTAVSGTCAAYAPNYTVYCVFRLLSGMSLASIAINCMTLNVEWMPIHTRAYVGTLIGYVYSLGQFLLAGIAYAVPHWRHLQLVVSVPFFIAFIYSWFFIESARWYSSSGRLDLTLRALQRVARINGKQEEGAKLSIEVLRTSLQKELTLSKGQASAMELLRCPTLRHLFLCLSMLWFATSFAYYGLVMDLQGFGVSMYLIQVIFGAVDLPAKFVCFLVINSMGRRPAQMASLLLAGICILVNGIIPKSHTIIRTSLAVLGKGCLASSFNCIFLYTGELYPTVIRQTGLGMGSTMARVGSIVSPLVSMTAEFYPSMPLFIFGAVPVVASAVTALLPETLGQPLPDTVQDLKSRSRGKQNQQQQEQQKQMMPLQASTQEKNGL

[2] = molecular target: T1, Solute carrier family 22 member 6; experiment: TP_TRANSPORTER: inhibition of PAH uptake in Xenopus laevis oocytes; type: functional, cell-based, Oocyte
[3] = molecular target: T1, Solute carrier family 22 member 6; experiment: TP_TRANSPORTER: inhibition of PAH uptake (PAH: 20 uM, diCl-vinyl-NAC: 1000 uM) in Xenopus laevis oocytes; type: functional, cell-based; conditions: oocyte
[4] = molecular target: T1, Solute carrier family 22 member 6; experiment: TP_TRANSPORTER: inhibition of DNP-NAC uptake (DNP-NAC: 1 uM, diCl-vinyl-NAC: 1000 uM) in Xenopus laevis oocytes; type: functional, cell-based; conditions: oocyte
[5] = molecular target: T1, Solute carrier family 22 member 6; experiment: TP_TRANSPORTER: inhibition of PAH uptake (PAH: 20 uM, PentaCl-butadiene-NAC: 500 uM) in Xenopus laevis oocytes; type: functional, cell-based; conditions: oocyte
[6] = molecular target: T1, Solute carrier family 22 member 6; experiment: TP_TRANSPORTER: inhibition of DNP-NAC uptake (DNP-NAC: 1 uM, PentaCl-butadiene-NAC: 1000 uM) in Xenopus laevis oocytes; type: functional, cell-based; conditions: oocyte
[7] = molecular target: T1, Solute carrier family 22 member 6; experiment: TP_TRANSPORTER: inhibition of PAH uptake (PAH: 20 uM, N-acetylnorleucine: 1000 uM) in Xenopus laevis oocytes; type: functional, cell-based; conditions: oocyte
[8] = molecular target: T1, Solute carrier family 22 member 6; experiment: TP_TRANSPORTER: inhibition of DNP-NAC uptake (DNP-NAC: 1 uM, N-acetylnorleucine: 1000 uM) in Xenopus laevis oocytes; type: functional, cell-based; conditions: oocyte
[9] = molecular target: T1, Solute carrier family 22 member 6; experiment: TP_TRANSPORTER: inhibition of DNP-NAC uptake (DNP-NAC: 1 uM, Propanol-NAC: 1000 uM) in Xenopus laevis oocytes; type: functional, cell-based; conditions: oocyte
[10] = molecular target: T1, Solute carrier family 22 member 6; experiment: TP_TRANSPORTER: inhibition of PAH uptake (PAH: 20 uM, Propanol-NAC: 1000 uM) in Xenopus laevis oocytes; type: functional, cell-based; conditions: oocyte
[11] = molecular target: T1, Solute carrier family 22 member 6; experiment: TP_TRANSPORTER: inhibition of PAH uptake (PAH: 20 uM, 3-Phenyl-propyl-NAC: 1000 uM) in Xenopus laevis oocytes; type: functional, cell-based; conditions: oocyte
[12] = molecular target: T1, Solute carrier family 22 member 6; experiment: TP_TRANSPORTER: inhibition of DNP-NAC uptake (DNP-NAC: 1 uM, 3-Phenyl-propyl-NAC: 1000 uM) in Xenopus laevis oocytes; type: functional, cell-based; conditions: oocyte
[13] = molecular target: T1, Solute carrier family 22 member 6; experiment: TP_TRANSPORTER: inhibition of PAH uptake (PAH: 20 uM, Butyl-NAC: 500 uM) in Xenopus laevis oocytes; type: functional, cell-based; conditions: oocyte
[14] = molecular target: T1, Solute carrier family 22 member 6; experiment: TP_TRANSPORTER: inhibition of DNP-NAC uptake (DNP-NAC: 1 uM, Propyl-NAC: 1000 uM) in Xenopus laevis oocytes; type: functional, cell-based; conditions: oocyte
[15] = molecular target: T1, Solute carrier family 22 member 6; experiment: TP_TRANSPORTER: inhibition of DNP-NAC uptake (DNP-NAC: 1 uM, Butyl-NAC: 1000 uM) in Xenopus laevis oocytes; type: functional, cell-based; conditions: oocyte
[16] = molecular target: T1, Solute carrier family 22 member 6; experiment: TP_TRANSPORTER: inhibition of PAH uptake (PAH: 20 uM, Propyl-NAC: 1000 uM) in Xenopus laevis oocytes; type: functional, cell-based; conditions: oocyte
[17] = molecular target: T1, Solute carrier family 22 member 6; experiment: TP_TRANSPORTER: inhibition of PAH uptake (PAH: 20 uM, Dodecyl-NAC: 500 uM) in Xenopus laevis oocytes; type: functional, cell-based; conditions: oocyte
[18] = molecular target: T1, Solute carrier family 22 member 6; experiment: TP_TRANSPORTER: inhibition of DNP-NAC uptake (DNP-NAC: 1 uM, Dodecyl-NAC: 1000 uM) in Xenopus laevis oocytes; type: functional, cell-based; conditions: oocyte
[19] = molecular target: T1, Solute carrier family 22 member 6; experiment: TP_TRANSPORTER: inhibition of PAH uptake (PAH: 20 uM, Allyl-NAC: 1000 uM) in Xenopus laevis oocytes; type: functional, cell-based; conditions: oocyte
[20] = molecular target: T1, Solute carrier family 22 member 6; experiment: TP_TRANSPORTER: inhibition of DNP-NAC uptake (DNP-NAC: 1 uM, Allyl-NAC: 1000 uM) in Xenopus laevis oocytes; type: functional, cell-based; conditions: oocyte
[21] = molecular target: T1, Solute carrier family 22 member 6; experiment: TP_TRANSPORTER: inhibition of DNP-NAC uptake (DNP-NAC: 1 uM, NAC: 1000 uM) in Xenopus laevis oocytes; type: functional, cell-based; conditions: oocyte
[22] = substrate: CC(=O)N[C@@H](CSc1ccc([N+](=O)[O-])cc1[N+](=O)[O-])C(=O)O; experiment: TP_TRANSPORTER: uptake in Xenopus laevis oocytes; type: functional, cell-based, Oocyte

Molecule: COC(=O)[C@@H](CSCc1ccccc1)NC(C)=O
- Activity [1]: inhibitor [(at a rough estimate) 30 % of control]
- Ki [2]: 400 nM

Molecule: CC(=O)N[C@@H](CS/C(Cl)=C\Cl)C(=O)O
- Activity [3]: inhibitor [(at a rough estimate) 5 % of control]
- Activity [4]: inhibitor [(at a rough estimate) 25 % of control]

Molecule: CCSC[C@@H](NC(C)=O)C(=O)O
- Ki [2]: 1100 nM

Molecule: CC(=O)NC(CS/C(Cl)=C(\Cl)C(Cl)=C(Cl)Cl)C(=O)O (stereo not given)
- Activity [5]: inhibitor [(at a rough estimate) 15 % of control]
- Activity [6]: inhibitor [(at a rough estimate) <5 % of control]

Molecule: CCCC[C@H](NC(C)=O)C(=O)O
- Activity [7]: inhibitor [(at a rough estimate) 15 % of control]
- Activity [8]: inhibitor [(at a rough estimate) 35 % of control]

Molecule: CC(=O)NC(CSCCCO)C(=O)O (stereo not given)
- Activity [9]: inhibitor [(at a rough estimate) 30 % of control]
- Activity [10]: inhibitor [(at a rough estimate) 5 % of control]

Molecule: CC(=O)NC(CSCCCc1ccccc1)C(=O)O (stereo not given)
- Activity [11]: inhibitor [(at a rough estimate) 5 % of control]
- Activity [12]: inhibitor [(at a rough estimate) 10 % of control]

Molecule: CCCCSCC(NC(C)=O)C(=O)O (stereo not given)
- Activity [13]: inhibitor [(at a rough estimate) 5 % of control]
- Activity [14]: inhibitor [(at a rough estimate) 30 % of control]
- Activity [15]: inhibitor [(at a rough estimate) 5 % of control]
- Activity [16]: inhibitor [(at a rough estimate) 10 % of control]

Molecule: CCCCCCCCCCCCSC[C@@H](NC(C)=O)C(=O)O
- Activity [17]: inhibitor [(at a rough estimate) 15 % of control]
- Activity [18]: inhibitor [(at a rough estimate) <5 % of control]

Molecule: C=CCSCC(NC(C)=O)C(=O)O (stereo not given)
- Activity [19]: inhibitor [(at a rough estimate) 10 % of control]
- Activity [20]: inhibitor [(at a rough estimate) 15 % of control]

Molecule: CC(=O)N[C@@H](CSc1ccc([N+](=O)[O-])cc1[N+](=O)[O-])C(=O)O
- Ki [2]: 1900 nM

Molecule: CC(=O)N[C@@H](CS)C(=O)O [ACETYLCYSTEINE]
- Activity [21]: inhibitor [(at a rough estimate) 60 % of control]

Molecule: CCCCC/C=C\C\C=C/C=C/C=C/[C@@H](SC[C@H](NC(C)=O)C(=O)O)[C@@H](O)CCCC(=O)O
- Ki [2]: 9000 nM

B1: Solute carrier family 22 member 6 (Rattus norvegicus) (protein)
chain: T1 sequence (O35956 whole entry)
- Km [22]: 2 µM
